The nature of series [1]: Stability of JAK3 Covalent Inhibitors in Human Whole Blood. Type of series: in vitro ADME. The settings on record: both sexes, 1 μM test compound, 37° C., 180 min incubation, read-out: Human blood stability t1/2. A digest of the protocol:
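Compound at 1 μM final incubated in duplicate at 37° C for 180 min in fresh K2-EDTA whole blood […]. Samples quenched in acetonitrile with internal standard; LC-MS/MS peak area ratios gave % parent remaining over time.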

The target of series [2] is T1, JAK3 enzyme (Homo sapiens, UniProt P52333).
T1 sequence (P52333 1-1124): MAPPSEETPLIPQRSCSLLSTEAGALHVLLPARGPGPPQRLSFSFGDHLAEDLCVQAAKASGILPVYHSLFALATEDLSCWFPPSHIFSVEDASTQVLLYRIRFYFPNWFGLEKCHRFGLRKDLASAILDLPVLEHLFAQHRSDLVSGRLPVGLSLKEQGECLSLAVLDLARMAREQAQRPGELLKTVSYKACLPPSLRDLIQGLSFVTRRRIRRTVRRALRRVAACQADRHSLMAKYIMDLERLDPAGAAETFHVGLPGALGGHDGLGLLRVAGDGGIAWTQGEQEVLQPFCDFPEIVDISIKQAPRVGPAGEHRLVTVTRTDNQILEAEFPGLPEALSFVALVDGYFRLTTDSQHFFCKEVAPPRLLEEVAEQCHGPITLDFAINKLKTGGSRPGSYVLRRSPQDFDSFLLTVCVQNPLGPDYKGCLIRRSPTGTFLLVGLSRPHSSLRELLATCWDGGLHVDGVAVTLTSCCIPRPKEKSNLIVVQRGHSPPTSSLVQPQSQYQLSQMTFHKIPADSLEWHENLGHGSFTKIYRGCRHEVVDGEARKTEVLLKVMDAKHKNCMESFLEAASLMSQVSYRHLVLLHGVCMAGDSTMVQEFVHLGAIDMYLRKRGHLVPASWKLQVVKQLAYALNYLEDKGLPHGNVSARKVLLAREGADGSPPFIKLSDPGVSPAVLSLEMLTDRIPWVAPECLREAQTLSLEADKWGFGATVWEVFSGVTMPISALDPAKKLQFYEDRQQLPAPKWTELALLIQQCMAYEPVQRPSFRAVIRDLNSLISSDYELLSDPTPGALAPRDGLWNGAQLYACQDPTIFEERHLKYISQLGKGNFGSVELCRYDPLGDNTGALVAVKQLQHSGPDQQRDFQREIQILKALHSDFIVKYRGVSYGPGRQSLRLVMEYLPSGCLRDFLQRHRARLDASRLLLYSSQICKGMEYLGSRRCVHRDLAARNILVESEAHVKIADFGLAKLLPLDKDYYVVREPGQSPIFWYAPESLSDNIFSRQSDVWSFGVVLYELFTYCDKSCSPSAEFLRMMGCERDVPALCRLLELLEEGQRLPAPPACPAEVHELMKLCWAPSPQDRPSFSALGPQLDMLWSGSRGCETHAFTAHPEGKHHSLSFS
Kind of series: JAK Caliper Enzyme Assay at 1 mM ATP. The series is classed as biochemical. A digest of the protocol: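 11-pt ½-log cpd titration in DMSO (top 600 μM, pre-assay); enzyme conc/incubation adjusted per prep → 20-30% peptide phosphorylation; phospho vs non-phospho peptide read by chip-based electrophoretic separation.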

By IC50 is commonly meant the point on the concentration scale where inhibition reaches its midpoint. Low readings indicate higher potency, high ones lower potency. As for `C=CC(=O)N1CCC(Oc2cnc3[nH]cc(C(=O)N[C@@H](C)CC)c3n2)CC1` [Example 205, 2-[(1-acryloylpiperidin-4-yl)oxy]-N-[(2S)-butan-2-yl]-5H-pyrrolo[2,3-b]pyrazine-7-carboxamide], the half-life at 1 μM in series [1] was determined as 250 min. For the same molecule, half-maximal inhibition in series [2] (IC50) required 16 nM.

For `C=CC(=O)N1CCC(Oc2cnc3[nH]cc(C(=O)N[C@@H]4CCC[C@@H]4F)c3n2)CC1` [Example 230, 2-[(1-acryloylpiperidin-4-yl)oxy]-N-[(1R,2S)-2-fluorocyclopentyl]-5H-pyrrolo[2,3-b]pyrazine-7-carboxamide], in series [1], the half-life at 1 μM is 351 min. Moreover, the IC50 in series [2] stood at 34 nM.

With `C=CC(=O)N1CC[C@@H](Oc2cnc3[nH]cc(C(=O)NCC)c3n2)[C@H](C)C1` (single isomer, unassigned) [Example 47], the half-life at 1 μM in series [1] was 108 min. The IC50 in series [2] was 87 nM.

For `C=CC(=O)N1C[C@@H](CF)C[C@@H](Nc2ncnc3[nH]ccc23)C1` (single isomer, unassigned) [Example 103], the half-life at 1 μM in series [1] was 137 min. The same molecule yielded an IC50 in series [2] of 38 nM.

As to `C=CC(=O)N1C[C@@H](CC#N)C[C@@H](Nc2ncnc3[nH]ccc23)C1` (single isomer, unassigned) [Example 106], in series [1], the half-life at 1 μM is 112 min. Moreover, in series [2], the IC50 was found to be 25 nM.

Regarding `C=CC(=O)N1CCC(Nc2cnc3[nH]cc(C(=O)NCCC4CC4)c3n2)CC1` [Example 178, 2-[(1-acryloylpiperidin-4-yl)amino]-N-(2-cyclopropylethyl)-5H-pyrrolo[2,3-b]pyrazine-7-carboxamide], the half-life at 1 μM in series [1] was 334 min. In series [2], this molecule yielded an IC50 of 6 nM.

Take `C=CC(=O)N1CC[C@@H](Oc2cnc3[nH]cc(C(=O)NCC)c3n2)C[C@@H]1C` (single isomer, unassigned) [Example 79]: the half-life at 1 μM in series [1] amounted to 330 min. In series [2], this molecule yielded an IC50 of 77 nM.

On to `C=CC(=O)N(C)C1CN(c2cnc3[nH]cc(C(=O)N[C@H](C)COC)c3n2)C1` [Example 86, 2-{3-[acryloyl(methyl)amino]azetidin-1-yl}-N-[(2R)-1-methoxypropan-2-yl]-5H-pyrrolo[2,3-b]pyrazine-7-carboxamide], for which the half-life at 1 μM in series [1] turned out to be 100 min. The same molecule gave an IC50 in series [2] of 94 nM.

On to `C=CC(=O)N1CCC(N(C)c2cnc3[nH]cc(C(=O)NC(C)C)c3n2)CC1` [Example 64, 2-[(1-acryloylpiperidin-4-yl)(methyl)amino]-N-(propan-2-yl)-5H-pyrrolo[2,3-b]pyrazine-7-carboxamide], for which the half-life at 1 μM in series [1] is 265 min. 50 nM corresponded to half-maximal inhibition in series [2] (IC50).

Values taken from US10703756B2, “Pyrrolo[2,3-D]pyrimidinyl, pyrrolo[2,3-B]pyrazinyl, pyrrolo[2,3-B]pyridinyl acrylamides and epoxides thereof” (Pfizer Inc., priority 2015, dated 2020).
